# Like-named read-outs stand apart in the source and are kept apart here.
# Tests used:
# Format in all cases: in vivo
# [1] = tested on: Beet Armyworm (Spodoptera exigua, LAPHEG); assay: Bioassays on Beet Armyworm (BAW), 128-well diet tray assay; settings: Spodoptera exigua
# Summary of the method: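 Mortality of second-instar larvae (1–5/well) on artificial diet treated with 50 μg/cm^2 compound, read after 5–7 days at 25° C.; values are means of eight wells.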
# [2] = tested on: Cabbage Looper (Trichoplusia ni, TRIPNI); assay: Bioassays on Cabbage Looper (CL), 128-well diet tray assay; settings: Trichoplusia ni
# Summary of the method: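 Second-instar larvae (1–5 per well) placed on artificial diet surface-treated with 50 μg/cm^2 test molecule applied in 90:10 acetone-water and dried. Held at 25° C., 14:10 light-dark, for five to seven days. Percent mortality scored per well and averaged over eight wells.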
# [3] = tested on: Green Peach Aphid (Myzus persicae, MYZUPE); assay: Bioassays on Green Peach Aphid (GPA), foliar spray on cabbage seedlings; settings: 72 h
# Summary of the method: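 Percent control (Abbott-corrected versus solvent-sprayed plants) comes from live-aphid counts three days after treatment at about 25° C. Test solution at 200 ppm was sprayed to runoff onto both leaf surfaces of cabbage seedlings infested a day earlier with 20-50 aphids; four replicate pots.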
# [4] = tested on: Yellow Fever Mosquito (Aedes aegypti, AEDSAE); settings: for YFM rating: Table ABC / ABC-DP rating
# Summary of the method: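 Compounds from 4000 ppm DMSO stocks were diluted in 90:10 water/acetone and dispensed into wells, then infested with about 1-day-old larvae in liver-powder water. Covered plates were held at room temperature for 3 days and each well was scored for mortality against a rating scale; six replicate plates per compound.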
# [5] = Beet Armyworm, rating class, read-out: BAW
# [6] = Cabbage Looper, rating class, read-out: CL
# [7] = Green Peach Aphid, rating class, read-out: GPA
# [8] = Yellow Fever Mosquito, rating class
# [9] = Table ABC: Biological Results, species BAW, read-out: BAW
# [10] = Table ABC: Biological Results, species CL, read-out: CL
# [11] = Table ABC: Biological Results, species GPA, read-out: GPA
# [12] = Table ABC: Biological Results, species YFM
# [13] = Beet Armyworm, Table ABC / ABC-DP rating, read-out: BAW rating
# [14] = Cabbage Looper, Table ABC / ABC-DP rating, read-out: CL rating
# [15] = Green Peach Aphid, Table ABC / ABC-DP rating, read-out: GPA rating
structure (smiles),measurement,setting,value
"O=C(CC(F)(F)F)Nc1c(F)ccc(NC(=O)c2cc(NC(=O)[C@H]3[C@H](c4ccc(F)c(Cl)c4)C3(Cl)Cl)ccc2Cl)c1F [F1701, 2-Chloro-5-((1R,3R)-2,2-dichloro-3-(3-chloro-4-fluorophenyl)cyclopropane-1-carboxamido)-N-(2,4-difluoro-3-(3,3,3-trifluoropropanamido)phenyl)benzamide]",pest or weed control at 50 µg/cm2,[1]; [5],50 to 100%
same,pest or weed control at 50 µg/cm2,[2]; [6],50 to 100%
same,pest or weed control at 200 µg/mL,[3]; [7],80 to 100%
same,YFM,[4]; [8],B (More than 0 – Less than 80)
"O=C(Nc1ccc(F)c(NC(=O)C(F)(F)C(F)(F)F)c1F)c1cc(NC(=O)[C@H]2[C@H](c3ccc(Cl)c(Cl)c3)C2(Cl)Cl)ccc1Cl [F1251, 2-Chloro-5-((1R,3R)-2,2-dichloro-3-(3,4-dichlorophenyl)cyclopropane-1-carboxamido)-N-(2,4-difluoro-3-(2,2,3,3,3-pentafluoropropanamido)phenyl)benzamide]",pest or weed control at 50 µg/cm2,[1]; [9],50 to 100%
same,pest or weed control at 50 µg/cm2,[2]; [10],50 to 100%
same,pest or weed control at 200 µg/mL,[3]; [11],0 to 80%
same,YFM,[4]; [12],A (80–100)
"O=C(NCCCCl)c1c(Cl)ccc(NC(=O)[C@H]2[C@H](c3ccc(F)c(Cl)c3)C2(Cl)Cl)c1Cl (relative stereo) [F2026, trans-2,6-Dichloro-N-(3-chloropropyl)-3-(2,2-dichloro-3-(3-chloro-4-fluorophenyl)cyclopropane-1-carboxamido)benzamide]",pest or weed control at 50 µg/cm2,[1]; [13],50 to 100%
same,pest or weed control at 50 µg/cm2,[2]; [14],50 to 100%
same,pest or weed control at 200 µg/mL,[3]; [15],0 to 80%
same,YFM rating,[4]; Yellow Fever Mosquito,A (80–100)
"O=C(NCC(F)(F)F)c1c(Cl)ccc(NC(=O)[C@H]2[C@H](c3ccc(F)c(Cl)c3)C2(Cl)Cl)c1Cl (relative stereo) [F2020, trans-2,6-Dichloro-3-(2,2-dichloro-3-(3-chloro-4-fluorophenyl)cyclopropane-1-carboxamido)-N-(2,2,2-trifluoroethyl)benzamide]",pest or weed control at 50 µg/cm2,[1]; [13],50 to 100%
same,pest or weed control at 50 µg/cm2,[2]; [14],50 to 100%
same,pest or weed control at 200 µg/mL,[3]; [15],0 to 80%
same,YFM rating,[4]; Yellow Fever Mosquito,A (80–100)
"O=C(Nc1cc(NC(=O)C(F)(F)F)c(F)cc1F)c1cc(NC(=O)[C@H]2[C@H](c3ccc(Cl)c(Cl)c3)C2(Cl)Cl)ccc1Cl [F1245, 2-Chloro-5-((1R,3R)-2,2-dichloro-3-(3,4-dichlorophenyl)cyclopropane-1-carboxamido)-N-(2,4-difluoro-5-(2,2,2-trifluoroacetamido)phenyl)benzamide]",pest or weed control at 50 µg/cm2,[1]; [9],50 to 100%
same,pest or weed control at 50 µg/cm2,[2]; [10],50 to 100%
same,pest or weed control at 200 µg/mL,[3]; [11],0 to 80%
same,YFM,[4]; [12],A (80–100)
"CCCCC(=O)Nc1c(F)ccc(NC(=O)c2cc(NC(=O)[C@H]3[C@H](c4ccc(Cl)c(Cl)c4)C3(Cl)Cl)ccc2Cl)c1F [F1474, 2-Chloro-5-((1R,3R)-2,2-dichloro-3-(3,4-dichlorophenyl)cyclopropane-1-carboxamido)-N-(2,4-difluoro-3-pentanamidophenyl)benzamide]",pest or weed control at 50 µg/cm2,[1]; [5],50 to 100%
same,pest or weed control at 50 µg/cm2,[2]; [6],50 to 100%
same,pest or weed control at 200 µg/mL,[3]; [7],0 to 80%
same,YFM,[4]; [8],A (80–100)
"O=C(NCC(F)(F)F)c1c(F)ccc(NC(=O)[C@H]2[C@H](c3ccc(F)c(Cl)c3)C2(Cl)Cl)c1F (relative stereo) [F2017, trans-3-(2,2-Dichloro-3-(3-chloro-4-fluorophenyl)cyclopropane-1-carboxamido)-2,6-difluoro-N-(2,2,2-trifluoroethyl)benzamide]",pest or weed control at 50 µg/cm2,[1]; [13],50 to 100%
same,pest or weed control at 50 µg/cm2,[2]; [14],50 to 100%
same,pest or weed control at 200 µg/mL,[3]; [15],80 to 100%
same,YFM rating,[4]; Yellow Fever Mosquito,A (80–100)
"CCCC(=O)Nc1c(F)ccc(NC(=O)c2cc(NC(=O)[C@H]3[C@H](c4ccc(Cl)c(Cl)c4)C3(Cl)Cl)ccc2Cl)c1F [F1473, N-(3-Butyramido-2,4-difluorophenyl)-2-chloro-5-((1R,3R)-2,2-dichloro-3-(3,4-dichlorophenyl)cyclopropane-1-carboxamido)benzamide]",pest or weed control at 50 µg/cm2,[1]; [5],50 to 100%
same,pest or weed control at 50 µg/cm2,[2]; [6],50 to 100%
same,pest or weed control at 200 µg/mL,[3]; [7],0 to 80%
same,YFM,[4]; [8],A (80–100)
"O=C(NCCF)c1c(F)ccc(NC(=O)[C@H]2[C@H](c3ccc(F)c(Cl)c3)C2(Cl)Cl)c1F (relative stereo) [F2027, trans-3-(2,2-Dichloro-3-(3-chloro-4-fluorophenyl)cyclopropane-1-carboxamido)-2,6-difluoro-N-(2-fluoroethyl)benzamide]",pest or weed control at 50 µg/cm2,[1]; [13],50 to 100%
same,pest or weed control at 50 µg/cm2,[2]; [14],50 to 100%
same,pest or weed control at 200 µg/mL,[3]; [15],80 to 100%
same,YFM rating,[4]; Yellow Fever Mosquito,A (80–100)
"O=C(Nc1ccccc1)c1c(F)ccc(NC(=O)[C@H]2[C@H](c3ccc(F)c(Cl)c3)C2(Cl)Cl)c1F (relative stereo) [F1108, trans-3-(2,2-Dichloro-3-(3-chloro-4-fluorophenyl)cyclopropane-1-carboxamido)-2,6-difluoro-N-phenylbenzamide]",pest or weed control at 50 µg/cm2,[1]; [9],50 to 100%
same,pest or weed control at 50 µg/cm2,[2]; [10],50 to 100%
same,pest or weed control at 200 µg/mL,[3]; [11],80 to 100%
same,YFM,[4]; [12],A (80–100)
"O=C(Nc1ccc(F)cc1F)c1cc(NC(=O)[C@H]2[C@H](c3cc(Cl)c(Cl)c(Br)c3)C2(Cl)Cl)ccc1Cl (relative stereo) [F1007, trans-5-(3-(3-Bromo-4,5-dichlorophenyl)-2,2-dichlorocyclopropane-1-carboxamido)-2-chloro-N-(2,4-difluorophenyl)benzamide]",pest or weed control at 50 µg/cm2,[1]; [9],50 to 100%
same,pest or weed control at 50 µg/cm2,[2]; [10],50 to 100%
same,pest or weed control at 200 µg/mL,[3]; [11],80 to 100%
same,YFM,[4]; [12],A (80–100)
"CC(=O)Nc1cccc(F)c1NC(=O)c1cc(NC(=O)[C@H]2[C@H](c3cc(Cl)cc(Cl)c3)C2(Cl)Cl)ccc1Cl (relative stereo) [F1636, trans-N-(2-Acetamido-6-fluorophenyl)-2-chloro-5-(2,2-dichloro-3-(3,5-dichlorophenyl)cyclopropane-1-carboxamido)benzamide]",pest or weed control at 50 µg/cm2,[1]; [5],50 to 100%
same,pest or weed control at 50 µg/cm2,[2]; [6],50 to 100%
same,pest or weed control at 200 µg/mL,[3]; [7],0 to 80%
same,YFM,[4]; [8],A (80–100)
"O=C(Nc1ccc(F)c(NC(=O)C2CCCC2)c1F)c1cc(NC(=O)[C@H]2[C@H](c3ccc(F)c(C(F)(F)F)c3)C2(Cl)Cl)ccc1Cl [F1643, 2-Chloro-N-(3-(cyclopentanecarboxamido)-2,4-difluorophenyl)-5-((1R,3R)-2,2-dichloro-3-(4-fluoro-3-(trifluoromethyl)phenyl)cyclopropane-1-carboxamido)benzamide]",pest or weed control at 50 µg/cm2,[1]; [5],50 to 100%
same,pest or weed control at 50 µg/cm2,[2]; [6],50 to 100%
same,pest or weed control at 200 µg/mL,[3]; [7],0 to 80%
same,YFM,[4]; [8],B (More than 0 – Less than 80)
"Nc1c(F)ccc(NC(=O)c2cc(NC(=O)[C@H]3[C@H](c4ccc(Cl)cc4)C3(Cl)Cl)ccc2Cl)c1F (relative stereo) [F1593, trans-N-(3-Amino-2,4-difluorophenyl)-2-chloro-5-(2,2-dichloro-3-(4-chlorophenyl)cyclopropane-1-carboxamido)benzamide]",pest or weed control at 50 µg/cm2,[1]; [5],50 to 100%
same,pest or weed control at 50 µg/cm2,[2]; [6],50 to 100%
same,pest or weed control at 200 µg/mL,[3]; [7],80 to 100%
same,YFM,[4]; [8],A (80–100)
"O=C(Nc1c(F)ccc(NC(=O)C(F)F)c1F)c1cc(NC(=O)[C@H]2[C@H](c3cc(Cl)c(Cl)c(Cl)c3)C2(Cl)Cl)ccc1Cl [F1238, 2-Chloro-5-((1R,3R)-2,2-dichloro-3-(3,4,5-trichlorophenyl)cyclopropane-1-carboxamido)-N-(3-(2,2-difluoroacetamido)-2,6-difluorophenyl)benzamide]",pest or weed control at 50 µg/cm2,[1]; [9],50 to 100%
same,pest or weed control at 50 µg/cm2,[2]; [10],50 to 100%
same,pest or weed control at 200 µg/mL,[3]; [11],0 to 80%
same,YFM,[4]; [12],A (80–100)
"O=C(Nc1ccc(F)c(NC(=O)C(F)(F)Cl)c1F)c1cc(NC(=O)[C@H]2[C@H](c3ccc(F)c(Cl)c3)C2(Cl)Cl)ccc1Cl [F1697, 2-Chloro-N-(3-(2-chloro-2,2-difluoroacetamido)-2,4-difluorophenyl)-5-((1R,3R)-2,2-dichloro-3-(3-chloro-4-fluorophenyl)cyclopropane-1-carboxamido)benzamide]",pest or weed control at 50 µg/cm2,[1]; [5],50 to 100%
same,pest or weed control at 50 µg/cm2,[2]; [6],50 to 100%
same,pest or weed control at 200 µg/mL,[3]; [7],80 to 100%
same,YFM,[4]; [8],A (80–100)
"CC(F)(F)CNC(=O)c1cc(NC(=O)[C@H]2[C@H](c3cc(Cl)cc(Cl)c3)C2(Cl)Cl)ccc1Cl (relative stereo) [F2075, trans-2-Chloro-5-(2,2-dichloro-3-(3,5-dichlorophenyl)cyclopropane-1-carboxamido)-N-(2,2-difluoropropyl)benzamide]",pest or weed control at 50 µg/cm2,[1]; [13],50 to 100%
same,pest or weed control at 50 µg/cm2,[2]; [14],50 to 100%
same,pest or weed control at 200 µg/mL,[3]; [15],80 to 100%
same,YFM rating,[4]; Yellow Fever Mosquito,B (More than 0 – Less than 80)

# Reference: patent US20250228239A1, “MOLECULES HAVING PESTICIDAL UTILITY, AND INTERMEDIATES, COMPOSITIONS, AND PROCESSES, RELATED THERETO” (priority 2024, published 2025)
